Results: ChEMBL document CHEMBL3045767, “Synthesis of novel 2-[4-(4-substitutedbenzamido/phenylacetamido)phenyl]benzothiazoles as antimicrobial agents” (2012)
Values after ≈ are worked out from the molar mass of the structure shown.

Key:
Type in all cases: functional
Bacillus subtilis [1] = assay: Antibacterial activity against Bacillus subtilis ATCC 6633 after 24 hr by CLSI broth microdilution method; conditions: ATCC 6633, 24 h
Pseudomonas aeruginosa [2] = assay: Antibacterial activity against Pseudomonas aeruginosa ATCC […] after 24 hr by CLSI broth microdilution method; conditions: ATCC 25853, 24 h
Klebsiella pneumoniae [3] = assay: Antibacterial activity against Klebsiella pneumoniae RSKK 574 after 24 hr by CLSI broth microdilution method; conditions: RSKK 574, 24 h
Candida albicans [4] = assay: Antifungal activity against Candida albicans ATCC 10231 after 48 hr by CLSI broth microdilution method; conditions: ATCC 10231, 48 h
Escherichia coli [5] = assay: Antibacterial activity against Escherichia coli ATCC 25922 after 24 hr by CLSI broth microdilution method; conditions: ATCC 25922, 24 h
Escherichia coli [6] = assay: Antibacterial activity against Escherichia coli producing extended spectrum beta lactamase enzyme after 24 hr by CLSI broth microdilution method
Bacillus subtilis [7] = assay: Antibacterial activity against ceftriaxon-resistant Bacillus subtilis after 24 hr by CLSI broth microdilution method
Klebsiella pneumoniae [8] = assay: Antibacterial activity against Klebsiella pneumoniae producing extended spectrum beta lactamase enzyme after 24 hr by CLSI broth microdilution method
Staphylococcus aureus [9] = assay: Antibacterial activity against Staphylococcus aureus ATCC 25923 after 24 hr by CLSI broth microdilution method; conditions: ATCC 25923, 24 h
Staphylococcus aureus [10] = assay: Antibacterial activity against methicillin-resistant Staphylococcus aureus after 24 hr by CLSI broth microdilution method
Pseudomonas aeruginosa [11] = assay: Antibacterial activity against gentamicin-resistant Pseudomonas aeruginosa after 24 hr by CLSI broth microdilution method
Candida albicans [12] = assay: Antifungal activity against Candida albicans

Work on `O=C(Cc1ccc(Br)cc1)Nc1ccc(-c2nc3ccccc3s2)cc1` yielded an MIC (Bacillus subtilis [1]) of 50 µg/mL (≈ 118 µM), an MIC (Pseudomonas aeruginosa [2]) of 12.5 µg/mL (≈ 29.5 µM) and an MIC (Klebsiella pneumoniae [3]) of 50 µg/mL (≈ 118 µM). The MIC (Candida albicans [4]) was 12.5 µg/mL (≈ 29.5 µM), the MIC (Escherichia coli [5]) was 25 µg/mL (≈ 59.1 µM) and the MIC (Escherichia coli [6]) was 50 µg/mL (≈ 118 µM). It also gave an MIC (Bacillus subtilis [7]) of 50 µg/mL (≈ 118 µM), an MIC (Klebsiella pneumoniae [8]) of 50 µg/mL (≈ 118 µM) and an MIC (Staphylococcus aureus [9]) of 50 µg/mL (≈ 118 µM). For the same molecule, the MIC (Staphylococcus aureus [10]) was 25 µg/mL (≈ 59.1 µM) and the MIC (Pseudomonas aeruginosa [11]) was 25 µg/mL (≈ 59.1 µM).

With `CCc1ccc(C(=O)Nc2ccc(-c3nc4ccccc4s3)cc2)cc1` the MIC (Bacillus subtilis [1]) was 50 µg/mL (≈ 139 µM), the MIC (Pseudomonas aeruginosa [2]) was 25 µg/mL (≈ 69.7 µM) and the MIC (Klebsiella pneumoniae [3]) was 25 µg/mL (≈ 69.7 µM). For the same molecule, the MIC (Candida albicans [4]) was 12.5 µg/mL (≈ 34.9 µM), the MIC (Escherichia coli [5]) was 25 µg/mL (≈ 69.7 µM) and the MIC (Escherichia coli [6]) was 50 µg/mL (≈ 139 µM). The MIC (Bacillus subtilis [7]) was 50 µg/mL (≈ 139 µM), the MIC (Klebsiella pneumoniae [8]) was 50 µg/mL (≈ 139 µM) and the MIC (Staphylococcus aureus [9]) was 50 µg/mL (≈ 139 µM). The MIC (Staphylococcus aureus [10]) was 6.25 µg/mL (≈ 17.4 µM) and the MIC (Pseudomonas aeruginosa [11]) was 25 µg/mL (≈ 69.7 µM).

Molecule `CC(C)(C)c1ccc(C(=O)Nc2ccc(-c3nc4ccccc4s3)cc2)cc1` has an MIC (Bacillus subtilis [1]) of 50 µg/mL (≈ 129 µM), an MIC (Pseudomonas aeruginosa [2]) of 25 µg/mL (≈ 64.7 µM) and an MIC (Klebsiella pneumoniae [3]) of 25 µg/mL (≈ 64.7 µM). For the same molecule, the MIC (Candida albicans [4]) was 12.5 µg/mL (≈ 32.3 µM), the MIC (Escherichia coli [5]) was 25 µg/mL (≈ 64.7 µM) and the MIC (Escherichia coli [6]) was 50 µg/mL (≈ 129 µM). It also gave an MIC (Bacillus subtilis [7]) of 100 µg/mL (≈ 259 µM), an MIC (Klebsiella pneumoniae [8]) of 50 µg/mL (≈ 129 µM) and an MIC (Staphylococcus aureus [9]) of 50 µg/mL (≈ 129 µM). The MIC (Staphylococcus aureus [10]) was 12.5 µg/mL (≈ 32.3 µM) and the MIC (Pseudomonas aeruginosa [11]) was 25 µg/mL (≈ 64.7 µM).

Work on `Clc1ccc(OCc2nc3ccccc3s2)cc1` yielded an MIC (Candida albicans [12]) of 3.12 µg/mL (≈ 11.3 µM).

Molecule `C[C@@H]1[C@H](O)[C@@H](C)/C=C/C=C/C=C/C=C/C=C/C=C/C=C/[C@H](O[C@@H]2O[C@H](C)[C@@H](O)[C@H](N)[C@@H]2O)C[C@@H]2O[C@](O)(C[C@@H](O)C[C@@H](O)[C@H](O)CC[C@@H](O)C[C@@H](O)CC(=O)O[C@H]1C)C[C@H](O)[C@H]2C(=O)O` [AMPHOTERICIN B] has an MIC (Candida albicans [4]) of 0.78 µg/mL (≈ 0.844 µM).

With `O=C(Nc1ccc(-c2nc3ccccc3s2)cc1)c1ccc(Br)cc1` the MIC (Bacillus subtilis [1]) was 50 µg/mL (≈ 122 µM), the MIC (Pseudomonas aeruginosa [2]) was 25 µg/mL (≈ 61.1 µM) and the MIC (Klebsiella pneumoniae [3]) was 50 µg/mL (≈ 122 µM). For the same molecule, the MIC (Candida albicans [4]) was 25 µg/mL (≈ 61.1 µM), the MIC (Escherichia coli [5]) was 50 µg/mL (≈ 122 µM) and the MIC (Escherichia coli [6]) was 50 µg/mL (≈ 122 µM). The MIC (Bacillus subtilis [7]) was 100 µg/mL (≈ 244 µM), the MIC (Klebsiella pneumoniae [8]) was 50 µg/mL (≈ 122 µM) and the MIC (Staphylococcus aureus [9]) was 50 µg/mL (≈ 122 µM). For the same molecule, the MIC (Staphylococcus aureus [10]) was 25 µg/mL (≈ 61.1 µM) and the MIC (Pseudomonas aeruginosa [11]) was 25 µg/mL (≈ 61.1 µM).

With `c1ccc2sc(CCC3CCCCC3)nc2c1` the MIC (Candida albicans [12]) was 3.12 µg/mL (≈ 12.7 µM).

`c1ccc(CCc2nc3ccccc3s2)cc1` [2-PHENETHYLBENZO[D]THIAZOLE] showed an MIC (Candida albicans [12]) of 3.12 µg/mL (≈ 13 µM).

`CC1(C)S[C@@H]2[C@H](NC(=O)[C@H](N)c3ccccc3)C(=O)N2[C@H]1C(=O)O.O.O.O` [AMPICILLIN TRIHYDRATE] showed an MIC (Bacillus subtilis [1]) of 0.78 µg/mL, an MIC (Escherichia coli [5]) of 3.12 µg/mL and an MIC (Escherichia coli [6]) of 400 µg/mL. The MIC (Bacillus subtilis [7]) was 0.78 µg/mL and the MIC (Staphylococcus aureus [9]) was 0.78 µg/mL.

Work on `O=C(Nc1ccc(-c2nc3ccccc3s2)cc1)c1ccc(F)cc1` yielded an MIC (Bacillus subtilis [1]) of 50 µg/mL (≈ 144 µM), an MIC (Pseudomonas aeruginosa [2]) of 25 µg/mL (≈ 71.8 µM) and an MIC (Klebsiella pneumoniae [3]) of 25 µg/mL (≈ 71.8 µM). It also gave an MIC (Candida albicans [4]) of 25 µg/mL (≈ 71.8 µM), an MIC (Escherichia coli [5]) of 50 µg/mL (≈ 144 µM) and an MIC (Escherichia coli [6]) of 50 µg/mL (≈ 144 µM). The MIC (Bacillus subtilis [7]) was 50 µg/mL (≈ 144 µM), the MIC (Klebsiella pneumoniae [8]) was 50 µg/mL (≈ 144 µM) and the MIC (Staphylococcus aureus [9]) was 50 µg/mL (≈ 144 µM). It also gave an MIC (Staphylococcus aureus [10]) of 25 µg/mL (≈ 71.8 µM) and an MIC (Pseudomonas aeruginosa [11]) of 25 µg/mL (≈ 71.8 µM).

`CC1COc2c(N3CCN(C)CC3)c(F)cc3c(=O)c(C(=O)O)cn1c23` (centres undefined) [OFLOXACIN] showed an MIC (Bacillus subtilis [1]) of 0.19 µg/mL (≈ 0.526 µM), an MIC (Pseudomonas aeruginosa [2]) of 6.25 µg/mL (≈ 17.3 µM) and an MIC (Klebsiella pneumoniae [3]) of 0.19 µg/mL (≈ 0.526 µM). The MIC (Escherichia coli [5]) was 0.19 µg/mL (≈ 0.526 µM), the MIC (Escherichia coli [6]) was 6.25 µg/mL (≈ 17.3 µM) and the MIC (Bacillus subtilis [7]) was 3.12 µg/mL (≈ 8.65 µM). The MIC (Klebsiella pneumoniae [8]) was 3.12 µg/mL (≈ 8.65 µM), the MIC (Staphylococcus aureus [9]) was 0.19 µg/mL (≈ 0.526 µM) and the MIC (Staphylococcus aureus [10]) was 1.56 µg/mL (≈ 4.32 µM). For the same molecule, the MIC (Pseudomonas aeruginosa [11]) was 50 µg/mL (≈ 138 µM).
